Experimental data from ChEMBL document CHEMBL3044672, “N9- and N7-(Chloromethyl Phenymethyl)Chloropurine Derivatives from , '-Dichloroxylenes: Synthesis and Anticancer Activity” (2005).

Experiments:
Format in all cases: functional
[1] = test system: CCRF-CEM; assay: Cytotoxicity against Homo sapiens (human) CCRF-CEM cells after 48 hr by sulforhodamine B assay
[2] = test system: OVCAR-4; assay: Cytotoxicity against Homo sapiens (human) OVCAR4 cells after 48 hr by sulforhodamine B assay; conditions: OVCAR-4, 48 h
[3] = test system: UACC-257; assay: Cytotoxicity against Homo sapiens (human) UACC257 cells after 48 hr by sulforhodamine B assay; conditions: UACC-257, 48 h
[4] = test system: HOP-62; assay: Cytotoxicity against Homo sapiens (human) HOP62 cells after 48 hr by sulforhodamine B assay; conditions: HOP-62, 48 h
[5] = test system: NCI-H23; assay: Cytotoxicity against Homo sapiens (human) NCI-H23 cells after 48 hr by sulforhodamine B assay; conditions: NCI-H23, 48 h
[6] = test system: RXF 393; assay: Cytotoxicity against Homo sapiens (human) RXF393 cells after 48 hr by sulforhodamine B assay; conditions: RXF 393, 48 h
[7] = Cytotoxicity against Homo sapiens (human) NCI-ADR-RES cells after 48 hr by sulforhodamine B assay
[8] = test system: MCF7; assay: Cytotoxicity against Homo sapiens (human) MCF7 cells assessed as cell growth at 10^-4 M after 48 hr by Alamar blue assay; conditions: MCF7, 48 h, read-out: Activity
[9] = test system: TK-10; assay: Cytotoxicity against Homo sapiens (human) TK10 cells after 48 hr by sulforhodamine B assay; conditions: TK-10, 48 h
[10] = test system: HCC 2998; assay: Cytotoxicity against Homo sapiens (human) HCC2998 cells after 48 hr by sulforhodamine B assay; conditions: HCC 2998, 48 h
[11] = test system: HCT-15; assay: Cytotoxicity against Homo sapiens (human) HCT15 cells after 48 hr by sulforhodamine B assay; conditions: HCT-15, 48 h
[12] = test system: UACC-62; assay: Cytotoxicity against Homo sapiens (human) UACC62 cells after 48 hr by sulforhodamine B assay; conditions: UACC-62, 48 h
[13] = test system: SF-268; assay: Cytotoxicity against Homo sapiens (human) SF268 cells after 48 hr by sulforhodamine B assay; conditions: SF-268, 48 h
[14] = test system: HCT-116; assay: Cytotoxicity against Homo sapiens (human) HCT116 cells after 48 hr by sulforhodamine B assay; conditions: HCT-116, 48 h
[15] = test system: A549; assay: Cytotoxicity against Homo sapiens (human) A549 cells after 48 hr by sulforhodamine B assay; conditions: A549, 48 h
[16] = test system: LOX IMVI; assay: Cytotoxicity against Homo sapiens (human) LOXIMVI cells after 48 hr by sulforhodamine B assay
[17] = test system: COLO 205; assay: Cytotoxicity against Homo sapiens (human) COLO205 cells after 48 hr by sulforhodamine B assay; conditions: COLO 205, 48 h
[18] = test system: Hs-578T; assay: Cytotoxicity against Homo sapiens (human) Hs 578T cells after 48 hr by sulforhodamine B assay
[19] = test system: RPMI-8226; assay: Cytotoxicity against Homo sapiens (human) RPMI8226 cells after 48 hr by sulforhodamine B assay; conditions: RPMI-8226, 48 h
[20] = test system: K562; assay: Cytotoxicity against Homo sapiens (human) K562 cells after 48 hr by sulforhodamine B assay; conditions: K562, 48 h
[21] = test system: KM12; assay: Cytotoxicity against Homo sapiens (human) KM12 cells after 48 hr by sulforhodamine B assay; conditions: KM12, 48 h
[22] = test system: SNB-75; assay: Cytotoxicity against Homo sapiens (human) SNB75 cells after 48 hr by sulforhodamine B assay; conditions: SNB-75, 48 h
[23] = test system: NCI-H522; assay: Cytotoxicity against Homo sapiens (human) NCI-H522 cells after 48 hr by sulforhodamine B assay; conditions: NCI-H522, 48 h
[24] = test system: MOLT-4; assay: Cytotoxicity against Homo sapiens (human) MOLT4 cells after 48 hr by sulforhodamine B assay; conditions: MOLT-4, 48 h
[25] = test system: NCI-H460; assay: Cytotoxicity against Homo sapiens (human) NCI-H460 cells assessed as cell growth at 10^-4 M after 48 hr by Alamar blue assay; conditions: NCI-H460, 48 h, read-out: Activity
[26] = test system: MDA-MB-231; assay: Cytotoxicity against Homo sapiens (human) MDA-MB-231 cells after 48 hr by sulforhodamine B assay; conditions: MDA-MB-231, 48 h
[27] = read-out: LC50 (the source's name)

SMILES: ClCc1cccc(Cn2cnc3nc(Cl)nc(Cl)c32)c1
- GI50 [1]: 1.38 µM
- TGI [1]: 2.75 µM
- CC50 [1, 27]: 5.49 µM
- GI50 [2]: 1.58 µM
- LC50 (concentration killing 50% of cells) [2]: 5.37 µM
- TGI [2]: 2.95 µM
- GI50 [3]: 3.46 µM
- LC50 (concentration killing 50% of cells) [3]: 38.9 µM
- TGI [3]: 15.1 µM
- GI50 [4]: 2.18 µM
- TGI [4]: 3.63 µM
- CC50 [4, 27]: 6.02 µM
- GI50 [5]: 1.54 µM
- TGI [5]: 30.9 µM
- CC50 [5, 27]: 5.37 µM
- GI50 [6]: 1.34 µM
- TGI [6]: 2.63 µM
- CC50 [6, 27]: 5.12 µM
- GI50 [7]: 1.54 µM
- LC50 (concentration killing 50% of cells) [7]: > 100 µM
- TGI [7]: 3.09 µM
- growth at 100 µM [8]: 0%
- GI50 [9]: 16.6 µM
- TGI [9]: 30.2 µM
- CC50 [9, 27]: 55 µM
- GI50 [10]: 1.9 µM
- TGI [10]: 3.31 µM
- CC50 [10, 27]: 5.75 µM
- GI50 [11]: 0.95 µM
- TGI [11]: 2.13 µM
- CC50 [11, 27]: 4.57 µM
- GI50 [12]: 1.02 µM
- LC50 (concentration causing 50% net cell kill) [12]: 4.67 µM
- TGI [12]: 2.18 µM
- GI50 [13]: 2.13 µM
- TGI [13]: 3.8 µM
- GI50 [14]: 0.75 µM
- TGI [14]: 1.99 µM
- CC50 [14, 27]: 4.46 µM
- GI50 [15]: 12 µM
- TGI [15]: 25.7 µM
- CC50 [15, 27]: 55 µM
- GI50 [16]: 0.23 µM
- TGI [16]: 0.79 µM
- GI50 [17]: 0.41 µM
- TGI [17]: 1.65 µM
- GI50 [18]: 1.41 µM
- TGI [18]: 2.81 µM
- GI50 [19]: 1.69 µM
- TGI [19]: 4.16 µM
- CC50 [19, 27]: > 100 µM
- GI50 [20]: 1.41 µM
- TGI [20]: 2.69 µM
- CC50 [20, 27]: 5.24 µM
- GI50 [21]: 16.6 µM
- TGI [21]: 35.5 µM
- CC50 [21, 27]: 74.1 µM
- GI50 [22]: 1.09 µM
- TGI [22]: 2.29 µM
- CC50 [22, 27]: 4.78 µM
- GI50 [23]: 1.81 µM
- TGI [23]: 3.54 µM
- CC50 [23, 27]: 6.91 µM
- GI50 [24]: 1.04 µM
- TGI [24]: 2.29 µM
- CC50 [24, 27]: 5.01 µM
- growth at 100 µM [25]: 0%
- GI50 [26]: 0.46 µM
- LC50 [26]: 4.16 µM
- TGI [26]: 1.73 µM
